Measured values: patent publication US20040110745A1, “Therapeutic chroman compounds” (priority 2001, published 2004)

What was measured:
guinea pigs = assay: learned helplessness assay for antidepressant/antianxiety activity; assay type: in vivo; conditions: guinea pig
Source text: The utility of the compounds for example to treat depression may be shown via a learned helplessness test in guinea pigs, which is used extensively as correlative to antidepressant activity in humans. The learned helplessness test may be carried out as follows: Seventy male Hartley guinea pigs, each weighing about 350-425 gm are fed ad lib, and are housed under a 12-hour light/dark cycle. The procedure consists of two phases: The induction phase and the avoidance training phase. In the induction phase, subjects are placed into standard shuttle cages (20 L×16 W×21 centimeters H) which are fitted with a grid floor. Electrical stimulation (1.25 mA, 10 sec duration) is delivered to the floor of the cage every 90-sec during 1 hour daily sessions. Subjects have no opportunity to escape or to avoid shocks. Induction is conducted for 2 consecutive days.
In avoidance training, testing is also conducted in the shuttle cages, except that the subjects are not returned to the same chamber in which induction had occurred. Additionally, all cages are fitted with a partition with an arch in the center of the cage, through which animals can pass between the left and right halves of the cage. The procedure employed is a standard shuttle avoidance procedure in which a compound, conditioned stimulus (a 10-sec presentation of a tone and turning on of a lamp on the side of the cage that the guinea pig was occupying) serves to indicate presentation of electrical current to the floor of the cage. Shock is presented for a 5 sec period, 5 sec after initiation of the conditioned stimulus. Entry into the opposite side of the shuttle cage via the arched partition prior to shock onset results in the end of the trial (avoidance response). If shock is delivered, entry into the opposite side of the cage results in termination of the shock and CS (escape). Reversal of learned helplessness in the induction subjects correlates to antidepressant activity of the test compound.
Avoidance training, 45-min in duration, is conducted on 2 consecutive days, beginning 48 hr after the final induction session. Seventy subjects are assigned to 1 of 6 groups of 11-12 animals. The groups are as follows:
Groups 2-6 are given induction and avoidance training sessions. Injections are administered immediately following induction sessions and 1 hour prior to avoidance training sessions. A second injection is administered 7-8 hours following the first injection, for a total of 9 injections administered over 5 days. No injections are administered following the final avoidance training session.
Compounds of the present invention may be administered in a volume of 1 mL/kg bwt. Imipramine is dissolved in DI water. The compounds are dissolved in DI water, to which was added a few drops of lactic acid (pH 5.5). […]

Structure (SMILES) | melting point | activity in the learned helplessness assay (guinea pigs)
CN1CCN(c2cccc3c(=O)cc(C(=O)Nc4ccc(N5CCOCC5)cc4O)oc23)CC1 [Example 22, 8-(4-Methyl-piperazin-1-yl)-4-oxo-4H-chromene-2-carboxylic acid (2-hydroxy-4-morpholin-4-yl-phenyl)-amide] | 248.4 to 249.6 °C | 
CCC(=O)N1CCN(c2ccc(NC(=O)c3cc(=O)c4cc(OC)cc(N5CCN(C)CC5)c4o3)cc2)CC1 [Example 44, 6-Methoxy-8-(4-methyl-piperazin-1-yl)-4-oxo-4H-chromene-2-carboxylic acid [4-(4-propionyl-piperazin-1-yl)-phenyl]-amide] |  | demonstrate activity
COc1cc(N2CCN(C)CC2)c2oc(C(=O)Nc3ccc(N4CCN(C(=O)CCO)CC4)cc3)cc(=O)c2c1 [Example 68, 6-Methoxy-8-(4-methyl-piperazin-1-yl)-4-oxo-4H-chromene-2-carboxylic acid {4-[4-(3-hydroxy-propanoyl)-piperazin-1-yl]-phenyl}-amide] | 195 to 197 °C | 
CCS(=O)(=O)N1CCN(c2ccc(NC(=O)c3cc(=O)c4cc(F)cc(N5CCN(C)CC5)c4o3)cc2)CC1 [Example 71, 6-Fluoro-8-(4-methyl-piperazin-1-yl)-4-oxo-4H-chromene-2-carboxylic acid [4-(4-ethane sulfonyl-piperazin-1-yl)-phenyl]-amide] | 233 to 234 °C | demonstrate activity
CCC(=O)N1CCN(c2ccc(NC(=O)c3cc(=O)c4cc(F)cc(N5CCN(C)CC5)c4o3)cc2)CC1 [Example 72, 6-flouro-8-(4-methyl-piperazin-1-yl)-4-oxo-4H-chromene-2-carboxylic acid [4-(4-propionyl-piperazin-1-yl)-phenyl]-amide] |  | demonstrate activity
CN1CCN(c2cc(F)cc3c(=O)cc(C(=O)Nc4ccc(N5CCN(C(=O)CCO)CC5)cc4)oc23)CC1 [Example 73, 6-Fluoro-8-(4-methyl-piperazin-1-yl)-4-oxo-4H-chromene-2-carboxylic acid {4-[4-(3-hydroxy-propanoyl)-piperazin-1-yl]-phenyl}-amide] | 195 to 199 °C | 
CCNC(=O)N1CCN(c2ccc(NC(=O)c3cc(=O)c4cc(F)cc(N5CCN(C)CC5)c4o3)cc2)CC1 [Example 81, 4-[4-({1-[6-Fluoro-8-(4-methyl-piperazin-1-yl)-4-oxo-4H-chromen-2-yl]-methanoyl}-amino)-phenyl]-piperazine-1-carboxylic acid Ethylamide] | 236 to 238 °C | 

Now from value to molecule, other results behind:

melting point | Structure (SMILES) | activity in the learned helplessness assay (guinea pigs)
215 to 216 °C | CN1CCN(c2cccc3c2OC(C(=O)Nc2ccc(N4CCOCC4)cc2)CC3)CC1 (racemic) [Example 75, racemic-8-(4-Methyl-piperazin-1-yl)-chroman-2-carboxylic acid (4-morpholin-4-yl-phenyl)-amide] | 
215 to 216 °C | CN1CCN(c2cccc3c2OC(C(=O)Nc2ccc(N4CCOCC4)cc2)CC3=O)CC1 (racemic) [Example 78, racemic-8-(4-methyl-piperazin-1-yl)-4-oxo-chroman-2-carboxylic acid (4-morpholin-4-yl-phenyl)-amide] | 
216 °C (dec.) | CN1CCN(c2cccc3c2OC(C(=O)Nc2ccc(N4CCOCC4)cc2)CC3=O)CC1 (single isomer, unassigned) [Example 79, 8-(4-Methyl-piperazin-1-yl)-4-oxo-chroman-2-carboxylic acid (4-morpholin-4-yl-phenyl)-amide] | 
215 °C (dec.) | CN1CCN(c2cccc3c2OC(C(=O)Nc2ccc(N4CCOCC4)cc2)CC3=O)CC1 (single isomer, unassigned) [Example 80, 8-(4-Methyl-piperazin-1-yl)-4-oxo-chroman-2-carboxylic acid (4-morpholin-4-yl-phenyl)-amide] | 
206 to 207 °C | CN1CCN(c2cccc3c2OC(C(=O)Nc2ccc(N4CCOCC4)cc2)CC3)CC1 (single isomer, unassigned; (+)) [Example 76, (+)-8-(4Methyl-piperazin-1-yl)-chroman-2-carboxylic acid (4-morpholin-4-yl-phenyl)-amide] | 
205.5 to 207 °C | CN1CCN(c2cccc3c2OC(C(=O)Nc2ccc(N4CCOCC4)cc2)CC3)CC1 (single isomer, unassigned; (-)) [Example 77, (−)-8-(4-Methyl-piperazin-1-yl)-chroman-2-carboxylic acid (4-morpholin-4-yl-phenyl)-amide] | 
217 to 218 °C (dec.) | CN1CCN(c2cccc3c(=O)cc(C(=O)Nc4ccc(N5CCOCC5)cc4)oc23)CC1 [Example 1, 8-(4-methyl-1-piperazinyl)-N-[4-(4-morpholinyl)phenyl]-4-Oxo-4H-chromene-2-carboxamide] | 
245 to 246.8 °C | CN1CCN(c2cccc3c(=O)cc(C(=O)N(C)c4ccc(N5CCOCC5)cc4)oc23)CC1 [Example 25, 8-(4-Methylpiperazin-1-yl)-4-oxo-4H-chromene-2-carboxylic acid methyl-(4-morpholin-4-yl-phenyl)amide] | 
234 to 236 °C | COc1cc(N2CCN(C)CC2)c2oc(C(=O)Nc3ccc(N4CCOCC4)cc3)cc(=O)c2c1 [Example 31, 6-Methoxy-8-(4-methyl-piperazin-1-yl)-4-oxo-4H-chromene-2-carboxylic acid (4-morpholin-4-yl-phenyl)-amide] | demonstrate activity
